The values below come from ChEMBL document CHEMBL1158840, “Cytotoxic prenylflavonoids from Artocarpus elasticus” (2005).

Each structure is given as a SMILES string. Converted amounts (≈) assume the structure as drawn. The source made the active and inactive calls. No cut-off for these calls is given here.

Test [1] deals with A549. Description: Cytotoxicity against human A549 cells by MTT assay. It counts as functional. The settings on record: for EC50: read-out: ED50 (the source's name).
The test system of test [2] is MCF7. Description: Cytotoxicity against human MCF7 cells by MTT assay. As to conditions: for EC50: read-out: ED50 (the source's name). The test is classed as functional. (Tetrazolium assays rely on reduction of a dye to a coloured formazan, in cell work by metabolically active cells.)
Test [3] concerns HT-29. Description: Cytotoxicity against human HT-29 cells by MTT assay. It counts as functional. The settings on record: for EC50: read-out: ED50 (the source's name).
Test [4] concerns Hep 3B2. Put plainly: (§1) Cytotoxicity against human Hep3B cells by MTT assay. It counts as functional.
A short description of test [5]: as §1. The test is classed as functional, Hep 3B2. As to conditions: read-out: ED50 (the source's name).

On to `CC(=O)C1c2oc3c4c(cc(O)c3c(=O)c2CC2C1C(=O)OC2(C)C)OC(C)(C)C=C4` (stereo not given), for which the result in test [1], in test [2], in test [3] and in test [4] was inactive.
With `COc1cc(O)c(-c2oc3c(CC=C(C)C)c(O)cc(O)c3c(=O)c2C(O)C=C(C)C)cc1O` (stereo not given), the outcome in test [1], in test [2], in test [3] and in test [4] was inactive.
For the compound `COc1cc(O)c2c3c1-c1oc4c(/C=C(\O)C(C)(C)O)c(O)cc(O)c4c(=O)c1C[C@@H]3C(C)(C)O2`, the outcome in test [1], in test [2], in test [3] and in test [4] was inactive.
Take `C=C(C)C1CC(=O)c2oc3c4c(cc(O)c3c(=O)c2C1)OC(C)(C)C=C4` (stereo not given) [ARTONOL A]: the EC50 in test [1] was determined as 1.1 mg/L (≈ 3.12 µM); in test [2] it was 2.7 mg/L (≈ 7.66 µM); in test [3], 3.1 mg/L (≈ 8.8 µM); in test [5] it was 21.9 mg/L (≈ 62.1 µM).
Regarding `CC1(C)C=Cc2c(cc(O)c3c(=O)c4c(oc23)-c2c(O)cc(O)c3c2C(C4)C(C)(C)O3)O1` (stereo not given), the outcome in test [1], in test [2], in test [3] and in test [4] was inactive.
In the case of `CC(C)=CCc1c2c(c(O)c3c(=O)c(C(O)C=C(C)C)c(-c4cc(O)c(O)cc4O)oc13)C=CC(C)(C)O2` (stereo not given), the result in test [1], in test [2], in test [3] and in test [4] was inactive.
With `C=C(C)C1Cc2c(oc3cc(O)cc(O)c3c2=O)-c2c(O)c3c(c(O)c21)OC(C)(C)C=C3` (stereo not given) [ARTELASTOXANTHONE], the EC50 in test [1] was found to be 10 mg/L (≈ 23 µM); in test [2], 3.1 mg/L (≈ 7.14 µM); in test [3] it was 3.9 mg/L (≈ 8.98 µM); in test [5] it was 3.2 mg/L (≈ 7.37 µM).
Take `C=C(C)C1Cc2c(oc3c(CC=C(C)C)c4c(c(O)c3c2=O)C=CC(C)(C)O4)-c2c(O)cc(O)c(O)c21` (stereo not given): the outcome in test [1], in test [2], in test [3] and in test [4] was inactive.
For the compound `CC(C)=CCC/C(C)=C/Cc1c2c(c3oc4c(c(=O)c3c1O)CC1c3c(c(O)cc(O)c3-4)OC1(C)C)C=CC(C)(C)O2` (stereo not given), the result in test [1], in test [2], in test [3] and in test [4] was inactive.
Turning to `O=c1[nH]cc(F)c(=O)[nH]1` [FLUOROURACIL], the EC50 in test [1] amounted to 0.4 mg/L (≈ 3.08 µM); in test [2], 0.2 mg/L (≈ 1.54 µM); in test [3], 0.2 mg/L (≈ 1.54 µM); in test [5], 0.6 mg/L (≈ 4.61 µM).
